Measurements taken from paper PMC4849758, “Rational Structure-Based Rescaffolding Approach to De Novo Design of Interleukin 10 (IL-10) Receptor-1 Mimetics” (PLoS ONE, 2016).
Bridge positions count the residues as written; N and C are the ends. Square brackets hold non-standard residues; d marks the D form. Peptide text beside a SMILES is read from it. * marks the point of attachment. Trp(5-OH) = N[C@@H](Cc1c[nH]c2ccc(O)cc12)C(=O)O; Butanoyl(4-guanidino) = N=C(N)NCCCC(=O)*

Columns and labels:
mIL-10C149Y [1] = molecular target: T1, mIL-10C149Y (Mus musculus, UniProt P18893, C167Y); assay: Thermal denaturation by circular dichroism (CD), Kd estimate from two-state unfolding model; format: binding, murine; details: 4.5 μM mimetic; for increase of native protein structure in presence of mimetic, percentage of the total change in the CD signal: at 332 K, average CD signal 215-230 nm, 2 μM mIL-10C149Y; for Kd: calculated from thermal denaturation CD data, 2 μM mIL-10C149Y dimer, two-state unfolding model, lower affinity limit reported
T1 construct: His8 tag (LEHHHHHHHH) from pET41b(+) (C); made in house
T1 sequence (P18893 19-178 C167Y): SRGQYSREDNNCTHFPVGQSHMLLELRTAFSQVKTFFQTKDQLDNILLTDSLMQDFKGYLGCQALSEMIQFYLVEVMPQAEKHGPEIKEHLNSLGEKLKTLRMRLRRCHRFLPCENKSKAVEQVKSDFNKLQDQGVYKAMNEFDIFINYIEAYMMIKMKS
Experimental: M1 was chemically synthesized, and its experimental binding affinity towards IL-10 was assessed by thermal stability measurements using circular dichroism (CD) and fluorescence (see materials and methods). For these studies, we used the readily available murine IL-10 mutant mIL-10C149Y in which Cys149 was replaced by the corresponding Tyr residue of the human protein, as it was previously shown to enhance protein refolding yield. Furthermore, this tyrosine would enhance the sensitivity of tryptophan fluorescence measurements (i.e. as stated above, it can act as energy donor for the tryptophan residue introduced as label in the mimetics).
Complex formation between M1 and mIL-10C149Y was determined by thermal denaturation using CD and the well-known negative ellipticity of IL-10 between 200 to 300 nm. […] The obtained curves shift to higher temperatures in the presence of M1. The shift is due to a lower degree of unfolded protein at any temperature in the presence of mimetic M1 as compared to the denaturation of mIL-10C149Y alone. […] At 332 K, the presence of M1 increased the native protein structure by 8%.
CD spectra were recorded with a J-815 instrument (Jasco, Gross-Umstadt, Germany) from 195 to 300 nm in 1-cm cuvettes at concentrations of 2 μM of mIL-10C149Y (dimer) and 4.5 μM of mimetics M1-M4. Ellipticity θ was recorded in millidegrees. Samples were heated from 298 to 364 K at a rate of 2 K/min under constant stirring to determine stabilization of IL-10/mimetic complexes. Estimates of binding affinities were derived with the assumption of a two state unfolding of mIL-10C149Y. The mimetics were assumed to stabilize exclusively the folded state. These simplifications allow applying equilibrium thermodynamics, such that the fraction Sn of the native state of mIL-10C149Y can be approximated: Sn = (1+ [M] Kd^-1 +Ku)^-1. Kd is the estimated dissociation constant of the mimetic, [M] its concentration. Ku is the temperature-dependent unfolding equilibrium constant (Ku = [denatured]/[native]) as measured by the unfolding curve of mIL-10C149Y in the absence of mimetics. […] In this case, the measured CD curves would be actually compatible with much higher mimetic affinities, because a local stabilization of the mimetic binding epitope on mIL-10C149Y is not counted as binding in the applied two state model but it is very likely to occur. For consistency, we have not explored the higher affinity limit that would still be compatible with the data. Instead, we report only the lower affinity range that complies with the assumptions, in order to prevent bias for overestimated mimetic affinities. […] Absolute thermodynamic parameters could only be obtained by isothermal titration calorimetry with the most promising mimetics. This of course required the initial confirmation of the binding of the precursor molecules which was accomplished by CD and Fluorescence Spectroscopy. Fluorescence emission at 360 nm was monitored simultaneously with the CD scan (the measuring beam served as the excitation light) using a second monochromator and photomultiplier in 90° geometry with respect to the CD absorption path. Thereby, temperature-dependent excitation spectra of the tryptophan at position two in the synthetic IL-10R1 mimetics were additionally obtained with the CD data acquisition.

mIL-10C149Y [2] = molecular target: T1, mIL-10C149Y; assay: Isothermal titration calorimetry (ITC); format: binding, murine; details: for TΔS, entropic component of binding / ΔH, enthalpic term of binding: ITC; for TΔS, entropic component of binding / ΔH, enthalpic term of binding / Kd: 298 K; for Kd: inferred from ITC thermodynamic data, single site model, variable stoichiometry; for fold increase of binding affinity with respect to M2-M4 / fold increase of binding with respect to M1: ratio of Kd values; for fold increase of binding with respect to M1: M1 Kd from thermal denaturation
From the text: Further ligand optimization was accomplished by the introduction of an additional N-terminal H-bond acceptor such as Gln or Glu (M5, M6), which would allow interactions with the cationic side chains of IL-10R27 and IL-10K34 (helix A) or with IL-10N148 (helix F’) (Fig 2A). Favourable energies obtained for the interaction of IL-10 with an aliphatic carboxylate chemical probe supported this rationale. Furthermore, residues IL-10L46 (loop AB) and IL-10I145 (helix F’) would additionally contribute with van der Waals interactions with the aliphatic moieties of the side chains of the residues introduced at the N-teminus. […] Furthermore, these measurements supported the expected stoichiometry 2:1 mimetic:dimer-protein binding ratio as previously observed for the IL-10R1/IL-10 complex.
The final constant heat signals were subtracted to correct for the solution enthalpy of the respective IL-10R1 mimetics. The resulting integrated heat curve was analyzed with the associated software Origin 9 [74] allowing a variable stoichiometry but restriction to a single Kd value (identical binding sites of the dimeric protein).

Compound	increase of native protein structure in presence of mimetic, percentage of the total change in the CD signal (mIL-10C149Y [1]) [%]	Kd (mIL-10C149Y [1]) [µM]	TΔS, entropic component of binding (mIL-10C149Y [2]) [kcal/mol]	ΔH, enthalpic term of binding (mIL-10C149Y [2]) [kcal/mol]	Kd (mIL-10C149Y [2]) [µM]	fold increase of binding affinity with respect to M2-M4 (mIL-10C149Y [2])	fold increase of binding with respect to M1 (mIL-10C149Y [2])
CC(=O)N[C@H]1CCCCNC(=O)C[C@@H](C(=O)N[C@H]2CCCCNC(=O)C[C@@H](C(=O)N[C@@H](CCCNC(=N)N)C(=O)N[C@@H](C)C(N)=O)NC(=O)[C@H](C(C)C)NC(=O)[C@H](CCCCN)NC(=O)[C@H](CCCNC(=N)N)NC2=O)NC(=O)[C@H](Cc2ccc(O)cc2)NC(=O)[C@H](CCCNC(=N)N)NC(=O)[C@H](Cc2c[nH]c3ccccc23)NC1=O [M1] (Ac-KWRYDKRKVDRA-NH2; lactam 1-5, 6-10)	8	> 30	–	–	–	–	–
CC(C)[C@@H]1NC(=O)[C@H](CCCCN)NC(=O)[C@H](CCCNC(=N)N)NC(=O)[C@@H](NC(=O)[C@@H]2CC(=O)NCCCC[C@H](NC(=O)CCCNC(=N)N)C(=O)N[C@@H](Cc3c[nH]c4ccc(O)cc34)C(=O)N[C@@H](CCCNC(=N)N)C(=O)N[C@@H](Cc3ccc(O)cc3)C(=O)N2)CCCCNC(=O)C[C@@H](C(=O)N[C@@H](CCCNC(=N)N)C(=O)N[C@@H](C)C(N)=O)NC1=O [M3] ({Butanoyl(4-guanidino)}-K[Trp(5-OH)]RYDKRKVDRA-NH2; lactam 1-5, 6-10)	12	6.7	–	–	–	–	–
CC(=O)N[C@@H](CCC(=O)O)C(=O)N[C@@H](CCCCN)C(=O)N[C@H]1CCCCNC(=O)C[C@@H](C(=O)N[C@H]2CCCCNC(=O)C[C@@H](C(=O)N[C@@H](CCCNC(=N)N)C(=O)N[C@@H](C)C(N)=O)NC(=O)[C@H](C(C)C)NC(=O)[C@H](CCCCN)NC(=O)[C@H](CCCNC(=N)N)NC2=O)NC(=O)[C@H](Cc2ccc(O)cc2)NC(=O)[C@H](CCCNC(=N)N)NC(=O)[C@H](Cc2c[nH]c3ccccc23)NC1=O [M5] (Ac-EKKWRYDKRKVDRA-NH2; lactam 3-7, 8-12)	–	–	9.5	-0.5	0.07 ± 0.02	more than 70 fold	more than 400 fold

Now from value to molecule:

increase of native protein structure in presence of mimetic, percentage of the total change in the CD signal (mIL-10C149Y [1]) [%]	Kd (mIL-10C149Y [1]) [µM]	TΔS, entropic component of binding (mIL-10C149Y [2]) [kcal/mol]	ΔH, enthalpic term of binding (mIL-10C149Y [2]) [kcal/mol]	Kd (mIL-10C149Y [2]) [µM]	fold increase of binding affinity with respect to M2-M4 (mIL-10C149Y [2])	fold increase of binding with respect to M1 (mIL-10C149Y [2])	Compound
16	5	–	–	–	–	–	CC(C)[C@@H]1NC(=O)[C@H](CCCCN)NC(=O)[C@H](CCCNC(=N)N)NC(=O)[C@@H](NC(=O)[C@@H]2CC(=O)NCCCC[C@H](NC(=O)CCCNC(=N)N)C(=O)N[C@@H](Cc3c[nH]c4ccccc34)C(=O)N[C@@H](CCCNC(=N)N)C(=O)N[C@@H](Cc3ccc(O)cc3)C(=O)N2)CCCCNC(=O)C[C@@H](C(=O)N[C@@H](CCCNC(=N)N)C(=O)N[C@@H](C)C(N)=O)NC1=O [M2] ({Butanoyl(4-guanidino)}-KWRYDKRKVDRA-NH2; lactam 1-5, 6-10)
11	8.4	–	–	–	–	–	CC(=O)N[C@@H](CCCNC(=N)N)C(=O)N[C@H]1CCCCNC(=O)C[C@@H](C(=O)N[C@H]2CCCCNC(=O)C[C@@H](C(=O)N[C@@H](CCCNC(=N)N)C(=O)N[C@@H](C)C(N)=O)NC(=O)[C@H](C(C)C)NC(=O)[C@H](CCCCN)NC(=O)[C@H](CCCNC(=N)N)NC2=O)NC(=O)[C@H](Cc2ccc(O)cc2)NC(=O)[C@H](CCCNC(=N)N)NC(=O)[C@H](Cc2c[nH]c3ccccc23)NC1=O [M4] (Ac-RKWRYDKRKVDRA-NH2; lactam 2-6, 7-11)
–	–	9.5	-0.5	0.04 ± 0.02	more than 70 fold	more than 400 fold	CC(=O)N[C@@H](CCC(=O)O)C(=O)N[C@@H](CCCNC(=N)N)C(=O)N[C@H]1CCCCNC(=O)C[C@@H](C(=O)N[C@H]2CCCCNC(=O)C[C@@H](C(=O)N[C@@H](CCCNC(=N)N)C(=O)N[C@@H](C)C(N)=O)NC(=O)[C@H](C(C)C)NC(=O)[C@H](CCCCN)NC(=O)[C@H](CCCNC(=N)N)NC2=O)NC(=O)[C@H](Cc2ccc(O)cc2)NC(=O)[C@H](CCCNC(=N)N)NC(=O)[C@H](Cc2c[nH]c3ccccc23)NC1=O [M6] (Ac-ERKWRYDKRKVDRA-NH2; lactam 3-7, 8-12)
